Measured values from patent US20180371404A1, “METABOLIC ENGINEERING OF MEMBRANE PROTEINS TO IMPROVE ESCHERICHIA COLI MEMBRANE INTEGRITY AND PRODUCTION OF FATTY ACIDS” (priority 2017, published 2018).
Values joined by “and” are separate entries in the source; they are usually repeats but may differ in a detail not shown here. Identical values can stand only once.

Experiments:
E. coli MG1655 [1] = details: 40 mM; cited from earlier work
BW25113 [2] = details: 10 vol % hexane in LB at 37° C.; cited from earlier work
BW25113 [3] = details: phenol at 50-75% of the MIC in LB at 37° C.; cited from earlier work
E. coli LY01 = details: cited from earlier work
E. coli MG1655 [4] = experiment: Octanoic acid tolerance characterization (specific growth rate); assay type: cell-based
Procedure: 2.2 Strain Tolerance Characterization: Octanoic acid tolerance was characterized in 50 ml MOPS defined minimal medium with 2.0% (wt/v) dextrose and 10 mM octanoic acid (1.44 g/L) in 250 ml baffled flasks at 220 rpm and initial pH at 7.0, 30° C. MOPS media contains the following: 8.37 g/L 3-(N-morpholino)propanesulfonic acid (MOPS), 0.72 g/L tricine, 2.92 g/L NaCl, 0.51 g/L NH4Cl, 1.6 g/L KOH, 50 mg/L MgCl2, 48 mg/L K2SO4, 348 mg/L K2HPO4, 0.215 mg/L Na2SeO3, 0.303 mg/L Na2MoO4.2H2O, 0.17 mg/L ZnCl2, 2.5 μg/L FeCl2.4H2O, 0.092 μg/L CaCl2.2H2O, 0.031 μg/L H3BO3, 0.020 μg/L MnCl2.4H2O, 0.0090 μg/L CoCl2.4H2O, and 0.0020 μg/L CuCl2.4H2O [43, 44]. Specific growth rate μ (h-1) was calculated by fitting the equation OD=OD0e^μt over the duration of the exponential growth phase. […] Dry cell weight (DCW) was calculated from the optical density at 550 nm (1 OD550=0.333 g DCW/L).

E. coli MG1655 [5] = experiment: Membrane integrity (SYTOX Green, flow cytometry) during C8 challenge; assay type: cell-based
Procedure: Membrane Integrity Characterization: Cells were centrifuged, washed twice, and then resuspended in PBS buffer (pH 7.0) at a final OD550 of ˜1. One hundred microliter (100 μl) of this suspension was mixed with 900 μl of PBS buffer and SYTOX Green (Invitrogen) was added to a final concentration of 5.0 μM. After resting at room temperature for 15 minutes, cells were analyzed by a BD Biosciences FACSCanto II flow cytometer equipped with standard factory-installed 488 nm excitation laser, signal collection optics, and fluorescence emission filter configuration. Instrument sheath fluid was filtered (0.22 μm) PBS buffer. Green fluorescence from stained cells was collected in the FL1 channel (525/50 nm). Forward scatter (FSC), side scatter (SSC), and FL1 (Green) parameters were collected as logarithmic signals. All data collections were performed at low flow rate setting (˜12 μl/min) and cell concentrations were such that the event rate was below 5,000 events/s. All samples were analyzed immediately after staining. Background noise and small debris was eliminated from data collection via a side scatter signal threshold that was established by examining samples containing only SYTOX Green staining buffer. Bacteria in SYTOX Green-stained samples were readily identified on the basis of FSC and SSC signals and an appropriate “Cell” gate was drawn to limit FL1 analysis to bacteria and exclude non-cell events. A minimum of 20,000 cell-gated events were collected for each sample. Green fluorescence data for these “cell” events were plotted as histograms showing the signal distribution of bacteria in the sample [14]. Flow cytometry data for this work is available via Flow Repository (https://flowrepository.org) (FR-FCM-ZY2B).

E. coli BW25113 = details: up to 20 mM C8, pH 7.0, 37° C.; cited from earlier work
E. coli Frag1 = details: 8 mM acetate; cited from earlier work
E. coli KO11 = details: cited from earlier work

For `CCCCCC(=O)O` [hexanoic acid], the growth inhibition (E. coli MG1655 [1]) is given as “completely inhibitory”.

For `CCCCCC` [Hexane], the “survival (assessed by OD) on deletion of fadL” value (BW25113 [2]) is given as “Deletion of fadL from BW25113 increased survival, as assessed by OD”.

For `Oc1ccccc1` [Phenol], the “survival on deletion of fadL” value (BW25113 [3]) is given as “Deletion of fadL from BW25113 had no impact on survival”.

For `O=Cc1ccco1` [Furfural], the “concentration that inhibits growth completely” value (E. coli LY01) is given as 3.5 g/L.

`CCCCCCCC(=O)O` [C8, octanoic acid] gave a specific growth rate (E. coli MG1655 [4]; 10 mM C8, strain Gen-empty) of 0.31 h⁻¹, a specific growth rate (E. coli MG1655 [4]; 10 mM C8, strain Gen-fadL) of 0.33 h⁻¹ and a specific growth rate (E. coli MG1655 [4]; 10 mM C8, strain MG1655, MOPS+2% dextrose, 30° C., initial pH 7.0) of 0.31 h⁻¹. For the same molecule, the specific growth rate (E. coli MG1655 [4]; 10 mM C8, strain Pla-empty) was 0.31 h⁻¹, the specific growth rate (E. coli MG1655 [4]; 10 mM C8, strain Pla-fadL) was 0.33 h⁻¹ and 0.32 h⁻¹ and the specific growth rate (E. coli MG1655 [4]; 10 mM C8, strain ΔfadL) was 0.27 h⁻¹. For the same molecule, the specific growth rate (E. coli MG1655 [4]; 10 mM C8, strain ΔompF+Pla-fadL) was 0.36 h⁻¹, the “specific growth rate, higher than control” value (E. coli MG1655 [4]; 10 mM C8, ΔompF+Pla-fadL vs Pla-empty) was 18% and the “specific growth rate, higher than individual increased expression of fadL” value (E. coli MG1655 [4]; 10 mM C8, ΔompF+Pla-fadL vs Pla-fadL) was 12%. For the same molecule, the “specific growth rate, higher than individual deletion of ompF” value (E. coli MG1655 [4]; 10 mM C8, ΔompF+Pla-fadL vs ΔompF+Pla-empty) was 10%, the “specific growth rate, higher than control” value (E. coli MG1655 [4]; C8 challenge, Gen-fadL vs Gen-empty) was 7% and the “specific growth rate, higher than control” value (E. coli MG1655 [4]; C8 challenge, Pla-fadL vs Pla-empty) was 8%. The “specific growth rate, lower than MG1655” value (E. coli MG1655 [4]; C8 challenge, ΔfadL vs MG1655) was 12%, the “specific growth rate, higher than MG1655” value (E. coli MG1655 [4]; C8 challenge, ΔompF vs MG1655) was 7% and the growth inhibition (E. coli MG1655 [1]) was “completely inhibitory”. For the same molecule, the “increase in membrane integrity” value (E. coli MG1655 [5]; 10 mM C8, Gen-fadL vs Gen-empty) was 14%, the “increase in membrane integrity” value (E. coli MG1655 [5]; 10 mM C8, Pla-fadL vs Pla-empty) was 25% and the “percentage of cells with intact membranes, lower than MG1655” value (E. coli MG1655 [5]; 10 mM C8, ΔfadL vs MG1655) was 23%. For the same molecule, the “increase in percentage of cells with intact membranes” value (E. coli MG1655 [5]; 10 mM C8, ΔompF vs wild-type control strain) was 18%, the “increase in percentage of cells with intact membranes” value (E. coli MG1655 [5]; C8 challenge, ΔompF+Pla-fadL vs Pla-empty) was 37% and the “magnitude of intracellular acidification on deletion of ompF” value (E. coli BW25113) was “assessed via the maximum OD. Deletion of ompF decreased the magnitude”.

In the case of `CC(=O)O` [acetate], the “reduction of specific growth rate” value (E. coli Frag1) is listed as 50%.

In the case of `CCO` [ethanol], the growth (E. coli KO11; 35 g/L ethanol, engineered E. coli KO11) is listed as “grows poorly” and the cells surviving challenge (E. coli KO11; 100 g/L ethanol, KO11) is listed as “less than 10%”.
